Results reported in patent publication US8309685B2 (Celgene Avilomics Research, Inc., priority 2007, dated 2012).
Read-outs that look alike come from different tables or passages of the source.

Key:
[1] = molecular target: HCV protease mutant A156T (Hepatitis C virus genotype 1b, UniProt Q9WMX2, A1182T); settings: biochemical assays, read-out: Comparative Ki Values, A156T; cited from earlier work
[2] = molecular target: HCV protease mutant D168A (Hepatitis C virus genotype 1b, UniProt Q9WMX2, D1194A); settings: biochemical assays, cited from earlier work; for IC50: literature, read-out: Comparative IC50 Values, D168A; for Ki: read-out: Comparative Ki Values, D168A
[3] = molecular target: T1, A156T mutant of the HCV NS3/4A 1b protease enzyme (Hepatitis C virus genotype 1b, UniProt P26663, A1182T); assay: HCV Protease FRET Assay (IC50), A156T mutant; format: biochemical; settings: read-out: Inhibition, HCV A156T; A156T enzyme, FRET assay
T1 construct: 10× stocks of NS3/4A protease enzyme from Bioenza (Mountain View, Calif.); purchased Bioenza (Mountain View, Calif.)
Procedure: (§1) HCV Protease FRET Assay for Wild Type and Mutated NS3/4A 1b Enzymes (IC50)
(§2) The protocol is a modified FRET-based assay (v—02) from In Vitro Resistance Studies of HCV Serine Protease Inhibitors, 2004, JBC, vol. 279, No. 17, pp 17508-17514.
(§3) 10× stocks of NS3/4A protease enzyme from Bioenza (Mountain View, Calif.) and 1.13× 5-FAM/QXL™ 520 FRET peptide substrate from Anaspec (San Jose, Calif.) were prepared in 50 mM HEPES, pH 7.8, 100 mM NaCl, 5 mM DTT and 20% glycerol. 5 μL of each enzyme were pre-incubated in a Corning (#3573) 384-well, black, non-treated microtiter plate (Corning, N.Y.) for 30 min at 25° C. with a 0.5 μL volume of 50% DMSO and serially diluted compounds prepared in 50% DMSO. Protease reactions were started with the addition of 45 μL of the FRET substrate and monitored for 120 minutes at λex487/λem514 through Quad^4 monochromoters in a Synergy^4 plate reader from BioTek (Winooski, Vt.). At the conclusion of each assay, progress curves from each well were examined for linear reaction kinetics and fit statistics (R^2, absolute sum of squares). Initial velocity (0 minutes to 30+ minutes) from each reaction was determined from the slope of a plot of relative fluorescence units vs time (minutes) and then plotted against inhibitor concentration to estimate IC50 from log[Inhibitor] vs Response, Variable Slope model in GraphPad Prism from GraphPad Software (San Diego, Calif.).
(§4) The compound numbers correspond to the compound numbers in Table 3. […] ;

[4] = system: HCV RNA replicon in cell line ET (luc-ubi-neo/ET), human Huh7 hepatoma; assay: Method A: HCV RNA replicon antiviral assay (luciferase, ET cell line); format: cell-based, Hepatitis C virus; settings: Hepatitis C virus, Huh-7
Summary of the method: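 ET replicon cells (Huh7 carrying luciferase-reporter HCV replicon) plated at 5×10^3 cells/well and exposed 72 hr to six 3-fold drug concentrations in DMEM/5% FBS. Replicon luciferase gave EC50/EC90; CytoTox-1 cell counts gave IC50 (viability); […]. Interferon alpha-2b served as positive control.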

[5] = molecular target: T2, D168A mutant of the HCV NS3/4A 1b protease enzyme (Hepatitis C virus genotype 1b, UniProt P26663, D1194A); assay: HCV Protease FRET Assay (IC50), D168A mutant; format: biochemical; settings: read-out: Inhibition, HCV D168A; D168A enzyme, FRET assay
T2 construct: 10× stocks of NS3/4A protease enzyme from Bioenza (Mountain View, Calif.); purchased Bioenza (Mountain View, Calif.)

[6] = system: cell line ET (luc-ubi-neo/ET), human Huh7 hepatoma cell line; assay: Method A: cytotoxicity in ET replicon cells (CytoTox-1); format: cell-based; settings: concentration decreasing cell viability by 50%, 72 hr
Summary of the method: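 ET cells (Huh7 carrying luciferase HCV replicon), 5×10^3 cells/well, given six 3-fold compound concentrations in DMEM with 5% FBS. After 72 hr, while subconfluent, cell number was measured with CytoTox-1 reagent. Interferon alpha-2b served as positive control.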

[7] = molecular target: T3, wild type HCV NS3/4A 1b protease enzyme (Hepatitis C virus genotype 1b, UniProt P26663); assay: biochemical; format: biochemical; settings: read-out: Inhibition, WT; WT enzyme, FRET assay
T3 construct: 10× stocks of NS3/4A protease enzyme from Bioenza (Mountain View, Calif.); purchased Bioenza (Mountain View, Calif.)

HCV NS3/4A protease = HCV NS3/4A protease (UniProt Q9WMX2); assay: Method B: HCV Protease Assay using FRET Methodology; parameters: species or system Hepatitis C virus; settings: read-out: Inhibition, Biochemical; Enzyme/Assay: Biochemical
Description: Method B: HCV Protease Assay using FRET Methodology
A quantitative, fluorescence resonance energy transfer (FRET)-based methodology was employed to identify HCV NS3/4A protease inhibitors. The assay employed a synthetic FRET peptide, derived from the HCV NS5A/5B cleavage site, with the HCV protease to evaluate the activity of compounds against the protease by monitoring the cleavage activity of the complex. A synthetic peptide which encompasses the NS5A-5B junction (NH2-EDVVCCSMSYK-COOH) was labeled with Dabcyl and Edans at N- and C-termini, respectively (Invitrogen, Carlsbad, Calif.). Fluorescence measurement was used to estimate the IC50 value of the test compound. […] Upon cleavage of the FRET peptide by HCV NS3/4A proteinase complex (100 ng/mL), the fluorescence is recovered and can be continuously monitored at excitation/emission=340/490 nm.

[8] = molecular target: T4, R155K mutant of the HCV NS3/4A 1b protease enzyme (Hepatitis C virus genotype 1b, UniProt P26663, R1181K); assay: HCV Protease FRET Assay (IC50_APP), R155K mutant; format: biochemical; settings: apparent IC50, R155K mutant; read-out: IC50_APP, HCV R155K
T4 construct: 10× stocks of NS3/4A protease enzyme from Bioenza (Mountain View, Calif.); purchased Bioenza (Mountain View, Calif.)

[9] = molecular target: T3, wild type HCV NS3/4A 1b protease enzyme; assay: HCV Protease FRET Assay (IC50_APP), wild type; format: biochemical; settings: read-out: IC50_APP, WT; apparent IC50, wild type NS3/4A 1b
[10] = molecular target: T2, D168A mutant of the HCV NS3/4A 1b protease enzyme; assay: HCV Protease FRET Assay (IC50_APP), D168A mutant; format: biochemical; settings: apparent IC50, D168A mutant; read-out: IC50_APP, HCV D168A
[11] = molecular target: T1, A156T mutant of the HCV NS3/4A 1b protease enzyme; assay: HCV Protease FRET Assay (IC50_APP), A156T mutant; format: biochemical; settings: apparent IC50, A156T mutant; read-out: IC50_APP, HCV A156T
[12] = molecular target: T5, HCV R155K (NS3/4A 1b protease) (Hepatitis C virus genotype 1b, UniProt P26663, R1181K); assay: HCV Protease FRET Assay (IC50), R155K mutant; format: biochemical; settings: R155K enzyme, read-out: Inhibition, HCV R155K
T5 construct: 10× stocks of NS3/4A protease enzyme from Bioenza (Mountain View, Calif.); purchased Bioenza (Mountain View, Calif.)
Procedure: as §1, §2, §3, §4

[13] = molecular target: T6, NS3 protease self-cleavage in Huh-7-Luc-Neo-ET wild-type replicon cells (Hepatitis C virus genotype 1b, UniProt Q9WMX2, E1202G/T1280I); assay: Inhibition of protease self cleavage after compound removal, wild-type replicon cells; format: cell-based; settings: 16 hours incubation, in as little as 4 hours after removal
T6 construct: host or cells: Huh-7-Luc-Neo-ET (human Huh7 hepatoma cells carrying the replicon)
Procedure: Inhibition of Protease Self Cleavage
Huh-7-Luc-Neo-ET cells were plated in Replicon Assay Medium (RPMI supplemented with 5% FBS, 1× non-essential amino acids and pen/strep) at a density of 1×10^5 cells/well in 12 well plates. Eight hours later the media was removed and replaced with 1 ml media containing test compound (5 wells per compound) and 0.02% DMSO and the cells were returned to the incubator overnight. Sixteen hours later 1 well from each compound and 1 untreated well were washed with PBS, then lysed and scraped into 30 ul of Cell Extraction Buffer (Biosource, Camarillo, Calif.) plus Complete Protease Inhibitor (Roche, Indianapolis, Ind.). The remaining wells were rinsed 2× with PBS then fed with Replicon Media and returned to the incubator. […]
Cell lysates were separated by SDS-Page (4-20%) and transferred to Immobilon-P PVDF membrane (Millipore Corporation, Mass.) and blotted with polyclonal anti NS3 antibody (Bioenza, Calif.). Blots were scanned on an Odyssey infrared scanner from Licor and the FL band and cleavage products were quantified separately using the Licor software provided with the scanner. The cleavage product was calculated as a percentage of the total NS3 in each sample and then normalized to the DMSO control so that the DMSO control reflects 100% activity.

[14] = assay described in Example 22, read-out: Replicon (IC50)

Compound	Ki [1] [nM]	IC50 [2] [nM]	Ki [2] [nM]	IC50 [8] [nM]	IC90 ([4]; assay described in Example 22) [nM]	IC50 [4, 14] [nM]	IC50 [9] [nM]	IC50 [10] [nM]	IC50 [11] [nM]	IC50 [12] [nM]	other results
COc1ccc2c(O[C@@H]3C[C@H]4C(=O)N[C@]5(C(=O)O)C[C@H]5/C=C\CCCCC[C@H](NC(=O)OC5CCCC5)C(=O)N4C3)cc(-c3csc(NC(C)C)n3)nc2c1 [BILN 2061]	> 1200	1860	> 1200								
C=C[C@@H]1C[C@]1(NC(=O)[C@@H]1C[C@@H](Oc2cc(-c3ccccc3)nc3cc(OC)ccc23)CN1C(=O)[C@H](CNC(=O)/C=C/C)NC(=O)OC(C)(C)C)C(=O)NS(=O)(=O)c1ccccc1 [Compound I-2, N-[(1,1-dimethylethoxy)carbonyl]-3-[(2-butenoyl)amino]-L-alanyl-(4R)-4-[(7-methoxy-2-phenyl-4-quinolinyl)oxy]-L-prolyl-1-amino-2-ethenyl-N-(phenylsulfonyl)-(1R,2S)-cyclopropanecarboxamide]											IC50 [3]: 10 to 100 nM; IC50 ([4]; Replicon, assay of Example 22, 72 hr, read-out: Inhibition, Replicon): 100 to 1000 nM; IC50 [5]: 1000 to 10000 nM; Inhibition, Cytotoxicity [6]: E (IC50≧10,000 nM); IC50 [7]: < 10 nM; IC50 (HCV NS3/4A protease): 100 to 1000 nM
C=CC(=O)NC[C@H](NC(=O)OC(C)(C)C)C(=O)N1C[C@H](Oc2nccc3ccc(Br)cc23)C[C@H]1C(=O)N[C@]1(C(=O)NS(=O)(=O)C2CC2)C[C@H]1C=C [Compound I-73, tert-butyl-(S)-3-acrylamido-1-((2S,4R)-4-(7-bromoisoquinolin-1-yloxy)-2-((1R,2S)-1-(cyclopropylsulfonylcarbamoyl)-2-vinylcyclopropylcarbamoyl)pyrrolidin-1-yl)-1-oxopropan-2-ylcarbamate]				10 to 100	100 to 1000	10 to 100	< 10	100 to 1000	10 to 100	< 10	
C=CC(=O)N[C@H](C)C(=O)N1C[C@H](Oc2nccc3ccc(Br)cc23)C[C@H]1C(=O)N[C@]1(C(=O)NS(=O)(=O)C2CC2)C[C@H]1C=C [Compound I-74, (2S,4R)-1-((R)-2-acrylamidopropanoyl)-4-(7-bromoisoquinolin-1-yloxy)-N-((1R,2S)-1-(cyclopropylsulfonylcarbamoyl)-2-vinylcyclopropyl)pyrrolidine-2-carboxamide]				10 to 100	10 to 100	10 to 100	< 10	100 to 1000	10 to 100	< 10	
C=C[C@@H]1C[C@]1(NC(=O)[C@@H]1C[C@@H](Oc2nccc3ccc(Br)cc23)CN1C(=O)[C@H](CCC(=O)C=C(C)C)NC(=O)OC(C)(C)C)C(=O)NS(=O)(=O)C1CC1 [Compound I-75, tert-butyl-(S)-1-((2S,4R)-4-(7-bromoisoquinolin-1-yloxy)-2-((1R,2S)-1-(cyclopropylsulfonylcarbamoyl)-2-vinylcyclopropylcarbamoyl)pyrrolidin-1-yl)-7-methyl-1,5-dioxooct-6-en-2-ylcarbamate]				100 to 1000	10 to 100	< 10	< 10	1000 to 10000	100 to 1000	10 to 100	
CCC[C@H](NC(=O)[C@@H]1[C@H]2CCC[C@H]2CN1C(=O)[C@@H](NC(=O)[C@@H](NC(=O)c1cnccn1)C1CCCCC1)C(C)(C)C)C(=O)C(=O)NC1CC1 [VX-950]	9900	193	150								Return of NS3 self-cleavage activity after drug removal [13]: virtually complete return of activity
